Biological target: T1, vanilloid receptor 1 (VR1/TRPV1 receptor) (Homo sapiens, UniProt Q8NER1)
T1 construct: expressed in transfected cells; host or cells: CHO K1 cells (ECACC), stably transfected
Test: VR1/TRPV1 receptor affinity, capsaicin stimulus (human)
Assay type: cell-based, human being
Set-up: key to (f) Ki (human being) [nM] Cap: result in words: AG=agonist; pAG=partial agonist; NE=no effect
Details: for Ki: Tables 8-12, read-out: (f) Ki (human being) [nM] Cap

T1 sequence (Q8NER1 whole entry): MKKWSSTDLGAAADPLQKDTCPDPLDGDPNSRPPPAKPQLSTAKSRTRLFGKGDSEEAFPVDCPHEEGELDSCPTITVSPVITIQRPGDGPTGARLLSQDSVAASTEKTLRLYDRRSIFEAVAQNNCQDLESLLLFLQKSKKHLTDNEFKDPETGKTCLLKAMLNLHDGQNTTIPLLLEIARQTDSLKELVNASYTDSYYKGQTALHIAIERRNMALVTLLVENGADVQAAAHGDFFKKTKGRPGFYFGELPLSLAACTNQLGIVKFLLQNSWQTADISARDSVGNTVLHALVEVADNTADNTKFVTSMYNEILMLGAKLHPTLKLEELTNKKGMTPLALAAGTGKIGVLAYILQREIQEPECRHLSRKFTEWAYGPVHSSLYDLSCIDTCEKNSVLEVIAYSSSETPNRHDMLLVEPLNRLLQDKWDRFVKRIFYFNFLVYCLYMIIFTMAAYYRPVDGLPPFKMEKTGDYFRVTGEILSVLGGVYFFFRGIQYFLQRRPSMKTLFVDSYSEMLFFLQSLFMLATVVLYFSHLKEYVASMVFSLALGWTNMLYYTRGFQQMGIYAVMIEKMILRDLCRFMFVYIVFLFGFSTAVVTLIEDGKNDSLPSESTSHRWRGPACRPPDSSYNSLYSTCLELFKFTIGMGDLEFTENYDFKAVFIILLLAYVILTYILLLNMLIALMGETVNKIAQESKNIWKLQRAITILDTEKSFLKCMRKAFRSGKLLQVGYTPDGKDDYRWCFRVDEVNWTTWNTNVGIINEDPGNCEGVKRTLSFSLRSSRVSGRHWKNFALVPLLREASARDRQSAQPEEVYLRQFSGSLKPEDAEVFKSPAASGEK

Molecule	Ki	also measured
CC(=O)NCc1ccc(C(C)C(=O)NCc2cc(C(C)(C)C)nn2-c2cccc(Cl)c2)cc1F (stereo not drawn) [Example B67, 2-[4-(Acetylamino-methyl)-3-fluoro-phenyl]-N-[[5-tert-butyl-2-(3-chlorophenyl)-2H-pyrazol-3-yl]-methyl]-propionamide]		(f) Ki (human being) [nM] Cap: result in words (Tables 8-12): AG
4-[[[2-(3-Chlorophenyl)-5-(trifluoromethyl)-2H-pyrazol-3-yl]-methyl-carbamoyl]-methyl]-2-fluoro-N-(4-fluorophenyl)-benzamide [Example E38]	3 nM	
O=C(NCc1cc(C(F)(F)F)nn1-c1cccc(Cl)c1)Nc1ccc(N2CCOCC2)c(F)c1 [Example C5, 1-[[2-(3-Chlorophenyl)-5-(trifluoromethyl)-2H-pyrazol-3-yl]-methyl]-3-(3-fluoro-4-morpholin-4-yl-phenyl)-urea]	44 nM	
CC(C(=O)NCc1cc(C(C)(C)C)nn1-c1ccc(F)c(F)c1)c1ccc(CO)c(F)c1 (stereo not drawn) [Example A39, N-[[5-tert-Butyl-2-(3,4-difluoro-phenyl)-2H-pyrazol-3-yl]-methyl]-2-[3-fluoro-4-(hydroxymethyl)-phenyl]-propionamide]		(f) Ki (human being) [nM] Cap: result in words (Tables 8-12): AG
NS(=O)(=O)NCc1ccc(NC(=O)NCc2cc(C(F)(F)F)nn2-c2cccc(F)c2)cc1 [Example B77, 1-[[2-(3-Fluorophenyl)-5-(trifluoromethyl)-2H-pyrazol-3-yl]-methyl]-3-[4-[(sulfamoylamino)-methyl]-phenyl]-urea]	44 nM	
CC(C(=O)NCc1cc(C(F)(F)F)nn1-c1cccc(Cl)c1)c1ccc(S(C)(=O)=O)c(F)c1 (stereo not drawn) [Example D2, N-[[2-(3-Chlorophenyl)-5-(trifluoromethyl)-2H-pyrazol-3-yl]-methyl]-2-(3-fluoro-4-methylsulfonyl-phenyl)-propionamide]	73 nM	
CC(O)c1ccc(C(C)C(=O)NCc2cc(C(C)(C)C)nn2-c2cccc(Cl)c2)cc1F (stereo not drawn) [Example A98, N-[[5-tert-Butyl-2-(3-chlorophenyl)-2H-pyrazol-3-yl]-methyl]-2-[3-fluoro-4-(1-hydroxy-ethyl)-phenyl]-propionamide]		(f) Ki (human being) [nM] Cap: result in words (Tables 8-12): AG
NS(=O)(=O)NCc1ccc(NC(=O)NCc2cc(C(F)(F)F)nn2-c2ccc(F)c(Cl)c2)cc1 [Example B78, 1-[[2-(3-Chloro-4-fluoro-phenyl)-5-(trifluoromethyl)-2H-pyrazol-3-yl]-methyl]-3-[4-[(sulfamoylamino)-methyl]-phenyl]-urea]	21 nM	
CC(C(=O)NCc1cc(C(C)(C)C)nn1-c1cccc(C(F)(F)F)c1)c1ccc(CO)c(F)c1 (stereo not drawn) [Example A47, N-[[5-tert-Butyl-2-[3-(trifluoromethyl)phenyl]-2H-pyrazol-3-yl]-methyl]-2-[3-fluoro-4-(hydroxymethyl)-phenyl]-propionamide]		(f) Ki (human being) [nM] Cap: result in words (Tables 8-12): AG
CC(C(=O)NCc1cc(C(C)(C)C)nn1-c1ccc(F)cc1)c1ccc(CNS(C)(=O)=O)c(F)c1 (stereo not drawn) [Example B21, N-[[5-tert-Butyl-2-(4-fluorophenyl)-2H-pyrazol-3-yl]-methyl]-2-[3-fluoro-4-(methanesulfonamido-methyl)-phenyl]-propionamide]	30 nM	
Cc1cccc(-n2nc(C(F)(F)F)cc2CNC(=O)Nc2ccc(CNS(C)(=O)=O)cc2)c1 [Example B89, 1-[4-(Methanesulfonamido-methyl)-phenyl]-3-[[2-(m-tolyl)-5-(trifluoromethyl)-2H-pyrazol-3-yl]-methyl]-urea]	24 nM	
CC(C)(C)c1cc(CNC(=O)Nc2ccc(CNS(N)(=O)=O)c(F)c2)n(-c2cccc(Cl)c2)n1 [Example B46, 1-[[5-tert-Butyl-2-(3-chlorophenyl)-2H-pyrazol-3-yl]-methyl]-3-[3-fluoro-4-[(sulfamoylamino)-methyl]-phenyl]-urea]	9 nM	
1-[[2-(3,4-Difluoro-phenyl)-5-(trifluoromethyl)-2H-pyrazol-3-yl]-methyl]-3-[3-fluoro-4-(2-hydroxy-ethoxy-methyl)-phenyl]-urea [Example A132]		(f) Ki (human being) [nM] Cap: inhibition (as a percentage) (@ 5 μM, Tables 8-12): 48% @ 5 μM
CC(C)(C)c1cc(CNC(=O)Nc2cc(F)c(O)c(F)c2)n(-c2cccc(Cl)c2)n1 [Example A11, 1-[[5-tert-Butyl-2-(3-chlorophenyl)-2H-pyrazol-3-yl]-methyl]-3-(3,5-difluoro-4-hydroxy-phenyl)-urea]		(f) Ki (human being) [nM] Cap: result in words (Tables 8-12): AG
CC(C)(C)c1cc(CNC(=O)Nc2ccc(CNS(N)(=O)=O)cc2)n(-c2cccc(Cl)c2)n1 [Example B36, 1-[[5-tert-Butyl-2-(3-chlorophenyl)-2H-pyrazol-3-yl]-methyl]-3-[4-[(sulfamoylamino)-methyl]-phenyl]-urea]	6 nM	
4-[1-[[5-tert-Butyl-2-(3-chlorophenyl)-2H-pyrazol-3-yl]-methyl-carbamoyl]-ethyl]-N-(4-fluorophenyl)-benzamide [Example E42]	1 nM	
CCNCc1ccc(NC(=O)NCc2cc(C(F)(F)F)nn2-c2cccc(Cl)c2)cc1F [Example B24, 1-[[2-(3-Chlorophenyl)-5-(trifluoromethyl)-2H-pyrazol-3-yl]-methyl]-3-[4-(ethylamino-methyl)-3-fluoro-phenyl]-urea]	55 nM	

Molecule	Ki	also measured
CC(C(=O)NCc1cc(C(C)(C)C)nn1-c1cccc(Cl)c1)c1ccc(C(O)CO)cc1 (stereo not drawn) [Example A147, N-[[5-tert-Butyl-2-(3-chlorophenyl)-2H-pyrazol-3-yl]-methyl]-2-[4-(1,2-dihydroxy-ethyl)-phenyl]-propionamide]		(f) Ki (human being) [nM] Cap: result in words (Tables 8-12): AG
CC(C)(C)c1cc(CNC(=O)Nc2ccc(CNS(N)(=O)=O)c(F)c2)n(-c2cccc(F)c2)n1 [Example B59, 1-[[5-tert-Butyl-2-(3-fluorophenyl)-2H-pyrazol-3-yl]-methyl]-3-[3-fluoro-4-[(sulfamoylamino)-methyl]-phenyl]-urea]	16 nM	
CCS(=O)(=O)NCc1ccc(NC(=O)NCc2cc(C(F)(F)F)nn2-c2cccc(Cl)c2)cc1 [Example B84, 1-[[2-(3-Chlorophenyl)-5-(trifluoromethyl)-2H-pyrazol-3-yl]-methyl]-3-[4-[[(ethylsulfonyl)amino]-methyl]-phenyl]-urea]	53 nM	
CC(C(=O)NCc1cc(C(C)(C)C)nn1-c1cccc(F)c1)c1ccc(CNS(C)(=O)=O)c(F)c1 (stereo not drawn) [Example B9, N-[[5-tert-Butyl-2-(3-fluorophenyl)-2H-pyrazol-3-yl]-methyl]-2-[3-fluoro-4-(methanesulfonamido-methyl)-phenyl]-propionamide]	6 nM	
COc1cc(NC(=O)NCc2cc(C(F)(F)F)nn2-c2cccc(Cl)c2)ccc1CNS(C)(=O)=O [Example B12, 1-[[2-(3-Chlorophenyl)-5-(trifluoromethyl)-2H-pyrazol-3-yl]-methyl]-3-[4-(methanesulfonamido-methyl)-3-methoxy-phenyl]-urea]	41 nM	
CC(C)(C)c1cc(CNC(=O)Nc2ccc(CNS(C)(=O)=O)c(F)c2)n(-c2cccc(F)c2)n1 [Example B50, 1-[[5-tert-Butyl-2-(3-fluorophenyl)-2H-pyrazol-3-yl]-methyl]-3-[3-fluoro-4-(methanesulfonamido-methyl)-phenyl]-urea]	15 nM	
CC(=O)NCc1ccc(C(C)C(=O)NCc2cc(C(F)(F)F)nn2-c2cccc(Cl)c2)cc1F (stereo not drawn) [Example B66, 2-[4-(Acetylamino-methyl)-3-fluoro-phenyl]-N-[[2-(3-chlorophenyl)-5-(trifluoromethyl)-2H-pyrazol-3-yl]-methyl]-propionamide]	29 nM	
CNCc1ccc(C(C)C(=O)NCc2cc(C(C)(C)C)nn2-c2cccc(Cl)c2)cc1F (stereo not drawn) [Example B63, N-[[5-tert-Butyl-2-(3-chlorophenyl)-2H-pyrazol-3-yl]-methyl]-2-[3-fluoro-4-(methylamino-methyl)-phenyl]-propionamide]	30 nM	
CC(C)(C)c1cc(CNC(=O)Nc2ccc(CNS(C)(=O)=O)cc2)n(-c2cccc(F)c2)n1 [Example B45, 1-[[5-tert-Butyl-2-(3-fluorophenyl)-2H-pyrazol-3-yl]-methyl]-3-[4-(methanesulfonamido-methyl)-phenyl]-urea]	31 nM	
N-(3-Chlorophenyl)-4-[1-[[2-(3-chlorophenyl)-5-(trifluoromethyl)-2H-pyrazol-3-yl]-methyl-carbamoyl]-ethyl]-benzamide [Example E32]	48 nM	
4-[1-[[2-(3-Chlorophenyl)-5-(trifluoromethyl)-2H-pyrazol-3-yl]-methyl-carbamoyl]-ethyl]-2-fluoro-N-methyl-benzamide [Example E11]	11 nM	
NS(=O)(=O)NCc1ccc(NC(=O)NCc2cc(C(F)(F)F)nn2-c2ccc(F)c(F)c2)cc1F [Example B62, 1-[[2-(3,4-Difluoro-phenyl)-5-(trifluoromethyl)-2H-pyrazol-3-yl]-methyl]-3-[3-fluoro-4-[(sulfamoylamino)-methyl]-phenyl]-urea]	36 nM	
CC(C(=O)NCc1cc(C(F)(F)F)nn1-c1ccc(F)c(Cl)c1)c1ccc(S(C)(=O)=O)c(F)c1 (stereo not drawn) [Example D4, N-[[2-(3-Chloro-4-fluoro-phenyl)-5-(trifluoromethyl)-2H-pyrazol-3-yl]-methyl]-2-(3-fluoro-4-methylsulfonyl-phenyl)-propionamide]	41 nM	
4-[[[5-tert-Butyl-2-(3-chlorophenyl)-2H-pyrazol-3-yl]-methyl-carbamoyl]amino]-2-fluoro-N,N-dimethyl-benzamide [Example E12]	62 nM	
CC(C(=O)NCc1cc(C(C)(C)C)nn1-c1cccc(Cl)c1)c1ccc(CNS(C)(=O)=O)cc1 (stereo not drawn) [Example B6, N-[[5-tert-Butyl-2-(3-chlorophenyl)-2H-pyrazol-3-yl]-methyl]-2-[4-(methanesulfonamido-methyl)-phenyl]-propionamide]	7 nM	
4-[1-[[5-tert-Butyl-2-(3-chlorophenyl)-2H-pyrazol-3-yl]-methyl-carbamoyl]-ethyl]-N-(4-chlorophenyl)-2-fluoro-benzamide [Example E35]	2 nM	

Source: patent US9624209B2, “Substituted phenylureas and phenylamides as vanilloid receptor ligands” (Gruenenthal GmbH, priority 2009, dated 2017)
